Laboratory results reported in ChEMBL document CHEMBL1136874, “Novel carbazole and acyl-indole antimitotics” (Bioorg Med Chem Lett, 2009).
Activity calls are given as the source filed them. The calls are words filed in the database; no cut-off is given here.

Columns and labels:
[1] = Cell cycle arrest in human leukemic cells assessed as mitotic block by cytometry; format: functional, cell-based; settings: Leukemia cell
HT-29 = assay: Cytotoxicity against human HT-29 cells; format: functional
K562 = assay: Cytotoxicity against human K562 cells; format: functional
[2] = Displacement of [3H]colchicine from tubulin
SW-620 = assay: Cytotoxicity against human SW620 cells; format: functional
MCF7 = assay: Cytotoxicity against human MCF7 cells; format: functional
PC-3 = assay: Cytotoxicity against human PC3 cells; format: functional
[3] = Inhibition of tubulin polymerization
[4] = Cell cycle arrest in human leukemic cells assessed as blockage in G2/M phase by high content cellular analysis; format: functional, cell-based; settings: Leukemia cell
Leukemia cell [5] = assay: Induction of apoptosis in human leukemic cells; format: functional, cell-based
[6] = Displacement of labeled vinblastine from tubulin
Leukemia cell [7] = assay: Increase in phospho-Histone H3-ser10 level in human leukemic cells by flow cytometry; format: functional, cell-based

## NC(=O)c1ccc(-n2c3c(c4ccccc42)C(=O)CCC3)c(N)c1
[1]
  Activity: 10 µM

## N=C(NO)c1ccc(-n2c3c(c4ccccc42)C(=O)CCC3)c(Br)c1
[1]
  Activity: 2 µM

## COc1cc2c(c(OC)c1OC)-c1ccc(OC)c(=O)cc1[C@@H](NC(C)=O)CC2
[1]
  Activity: 0.043 µM

## COc1cc(C(N)=O)ccc1-n1c2c(c3ccccc31)C(=O)CCC2
[1]
  Activity: 0.42 µM

## CN[C@H]1CCc2cc(OC)c(OC)c(OC)c2-c2ccc(OC)c(=O)cc21 [DEMECOLCINE]
HT-29
  Activity: 25 nM
K562
  Activity: 16 nM
[2]
  IC50: 3580 nM
SW-620
  Activity: 31 nM
MCF7
  Activity: 7.8 nM
PC-3
  Activity: 31 nM

## CC(=O)Nc1ccc(-n2c3c(c4ccccc42)C(=O)CCC3)c(Cl)c1
[1]
  Activity: 0.41 µM

## COc1cc(-n2cc(C(C)=O)c3ccccc32)ccc1C(N)=O
[1]
  Activity: 0.1 µM

## Cc1cc(C(N)=O)ccc1-n1c2c(c3ccccc31)C(=O)CCC2
[1]
  Activity: 0.96 µM

## CC(=O)c1cn(-c2ccc(C(N)=O)cc2Cl)c2cc(Cl)ccc12
HT-29
  Activity: 9.3 nM
K562
  Activity: 0.085 nM
SW-620
  Activity: 6.5 nM
MCF7
  Activity: 1.2 nM
PC-3
  Activity: 2.2 nM
[1]
  Activity: 0.21 µM

## NC(=O)c1ccc(-n2c3c(c4ccccc42)C(=O)CCC3)c(Br)c1
[1]
  Activity: 0.15 µM

## CC[C@]1(O)C[C@@H]2CN(CCc3c([nH]c4ccccc34)[C@@](C(=O)OC)(c3cc4c(cc3OC)N(C)[C@H]3[C@@](O)(C(=O)OC)[C@H](OC(C)=O)[C@]5(CC)C=CCN6CC[C@]43[C@@H]65)C2)C1 [VINBLASTINE]
[3]
  IC50: 1150 nM

## NC(=O)c1ccc(-n2c3c(c4ccccc42)C(=O)CCC3)cc1NCc1ccccc1
[1]
  Activity: 6.2 µM

## C=CCNc1cc(-n2c3c(c4ccccc42)C(=O)CCC3)ccc1C(N)=O
[1]
  Activity: 0.99 µM

## NC(=O)c1ccc(-n2c3c(c4ccccc42)C(=O)CCC3)c(F)c1
[1]
  Activity: 5 µM

## COc1cc(-n2c3c(c4ccccc42)C(=O)CCC3)ccc1C(N)=O
[1]
  Activity: > 10 µM

## NC(=O)c1ccc(-n2c3c(c4ccccc42)C(=O)CCC3)cc1Br
[1]
  Activity: > 10 µM

## N#Cc1ccc(-n2c3c(c4ccccc42)C(=O)CCC3)c(C(F)(F)F)c1
[1]
  Activity: > 10 µM

## NC(=O)c1ccc(-n2c3c(c4ccccc42)C(=O)CCC3)c(Cl)c1
HT-29
  Activity: 300 nM
K562
  Activity: 210 nM
SW-620
  Activity: 94 nM
MCF7
  Activity: 85 nM
PC-3
  Activity: 140 nM
[1]
  Activity: 0.42 µM

## O=C(O)c1ccc(-n2c3c(c4ccccc42)C(=O)CCC3)c(Br)c1
[1]
  Activity: > 10 µM

## COc1cc(C(N)=O)ccc1-n1cc(C(C)=O)c2ccccc21
[1]
  Activity: 0.17 µM

## NC(=O)Nc1ccc(-n2c3c(c4ccccc42)C(=O)CCC3)c(Cl)c1
HT-29
  Activity: 3.2 nM
K562
  Activity: 5.5 nM
[4]
  Activity: Active
Leukemia cell [5]
  Activity: Active
[2]
  IC50: 1610 nM
SW-620
  Activity: 15 nM
[6]
  Activity: inactive
Leukemia cell [7]
  Activity: Active
[3]
  IC50: 1640 nM
MCF7
  Activity: 0.87 nM
PC-3
  Activity: 790 nM
[1]
  Activity: 0.12 µM

## NC(=O)c1ccc(-n2c3c(c4ccccc42)C(=O)CCC3)cc1
HT-29
  Activity: 4500 nM
K562
  Activity: 2000 nM
SW-620
  Activity: 1200 nM
MCF7
  Activity: 2300 nM
PC-3
  Activity: 7000 nM
[1]
  Activity: > 10 µM

## NC(=O)c1ccc(-n2c3c(c4ccccc42)C(=O)CCC3)c(C(F)(F)F)c1
[1]
  Activity: 0.24 µM

## CC(C)C(=O)c1cn(-c2ccc(C(N)=O)cc2Cl)c2ccccc12
[1]
  Activity: 5 µM

## NC(=O)c1ccc(-n2c3c(c4ccccc42)C(=O)CCC3)c(-c2ccccc2)c1
[1]
  Activity: > 10 µM

## CC(=O)c1cn(-c2ccc(C(N)=O)cc2Cl)c2ccccc12
[1]
  Activity: 0.14 µM
